Laboratory results from PMC6151550, “Inhibitory Effect of Selaginellins from Selaginella tamariscina (Beauv.) Spring against Cytochrome P450 and Uridine 5′-Diphosphoglucuronosyltransferase Isoforms on Human Liver Microsomes” (Molecules : A Journal of Synthetic Chemistry and Natural …, 2017).
Where two headings read alike, the source gives them in different places.

What was measured:
Type in all cases: in vitro ADME
CYP1A2 = molecular target: T1, CYP1A2 (Homo sapiens, UniProt P05177); test: CYP1A2 inhibition (phenacetin O-deethylase) in human liver microsomes, substrate cocktail LC-MS/MS
T1 construct: the incubation mixtures containing pooled HLMs (0.25 mg/mL, H2630, Xenotech); tissue Xenotech H2630; host or cells: pooled human liver microsomes
T1 sequence (P05177 1-516): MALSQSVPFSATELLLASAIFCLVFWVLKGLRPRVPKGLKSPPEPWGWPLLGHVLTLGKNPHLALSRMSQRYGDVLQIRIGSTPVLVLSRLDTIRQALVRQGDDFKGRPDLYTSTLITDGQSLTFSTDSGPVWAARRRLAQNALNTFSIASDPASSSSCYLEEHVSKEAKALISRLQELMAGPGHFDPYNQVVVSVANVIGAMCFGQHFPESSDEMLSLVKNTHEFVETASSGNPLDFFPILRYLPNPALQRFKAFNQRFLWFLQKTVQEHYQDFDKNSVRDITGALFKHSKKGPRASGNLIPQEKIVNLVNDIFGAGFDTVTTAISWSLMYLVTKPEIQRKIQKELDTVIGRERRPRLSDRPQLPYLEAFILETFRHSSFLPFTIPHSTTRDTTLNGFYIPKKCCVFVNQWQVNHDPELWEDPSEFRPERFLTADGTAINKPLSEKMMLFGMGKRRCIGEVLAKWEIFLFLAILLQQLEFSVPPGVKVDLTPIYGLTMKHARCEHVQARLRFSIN
Method: (§1) The inhibitory effects of two selaginellins on the metabolism of ten P450 probe substrates were evaluated using previously reported method with minor modification. Phenacetin O-deethylase, coumarin 7-hydroxylase, bupropion 4-hydroxylase, amodiaquine N-deethylase, tolbutamide 4-hydroxylase, omeprazole 5-hydroxylase, dextromethorphan O-demethylase, chlorzoxazone 6-hydroxylase and midazolam 1′-hydroxylase activities were determined as probe activities for CYP1A2, CYP2A6, CYP2B6, CYP2C8, CYP2C9, CYP2C19, CYP2D6, CYP2E1 and […], respectively, using substrate cocktail incubation and tandem mass spectrometry (Table 2). Selaginellins were dissolved in methanol. The final concentrations of organic solvent (methanol) for the cocktail incubation conditions in all experiments were 1.0% (v/v). In brief, the incubation mixtures containing pooled HLMs (0.25 mg/mL, H2630, Xenotech), P450 probe substrate cocktail, and inhibitor (0, 0.5, 2, 5, 20 and 50 μM) were preincubated at 37 °C for 5 min. […] After mixing and centrifugation, aliquots were analyzed by liquid chromatography-tandem mass spectrometry (LC-MS/MS) as previous described. The CYP2J2 inhibitory effects of two selaginellins were also evaluated in pooled HLMs using previously reported method. […]

CYP2C9 = molecular target: T2, CYP2C9 (Homo sapiens, UniProt P11712); test: CYP2C9 inhibition (tolbutamide 4-hydroxylase) in human liver microsomes, substrate cocktail LC-MS/MS; settings: IC50 P450 isoform 2C9, pooled HLMs 0.25 mg/mL, tolbutamide 100 μM
T2 construct: the incubation mixtures containing pooled HLMs (0.25 mg/mL, H2630, Xenotech); tissue Xenotech H2630; host or cells: pooled human liver microsomes
Method: as §1

UGT1A9 = molecular target: T3, UGT1A9 (Homo sapiens, UniProt O60656); test: UGT1A9 inhibition (mycophenolic acid glucuronidation) in human liver microsomes, cocktail LC-MS/MS
T3 construct: from tissue; host or cells: human liver microsomes
T3 sequence (O60656 26-530): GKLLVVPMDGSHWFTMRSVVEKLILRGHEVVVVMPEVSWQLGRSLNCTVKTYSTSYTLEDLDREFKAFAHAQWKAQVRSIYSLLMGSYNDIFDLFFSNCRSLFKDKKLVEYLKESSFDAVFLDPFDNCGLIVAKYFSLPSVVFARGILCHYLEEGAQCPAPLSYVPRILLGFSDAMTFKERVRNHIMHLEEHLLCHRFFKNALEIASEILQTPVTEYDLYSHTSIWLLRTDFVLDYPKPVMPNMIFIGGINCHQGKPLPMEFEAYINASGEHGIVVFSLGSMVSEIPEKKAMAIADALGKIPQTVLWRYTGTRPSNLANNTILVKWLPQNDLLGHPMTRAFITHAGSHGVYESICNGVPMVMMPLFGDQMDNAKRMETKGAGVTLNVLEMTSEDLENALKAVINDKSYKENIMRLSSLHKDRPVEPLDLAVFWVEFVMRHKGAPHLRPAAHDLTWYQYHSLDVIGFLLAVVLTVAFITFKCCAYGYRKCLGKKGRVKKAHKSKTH
Method: The inhibitory effects of two selaginellins on the metabolism of six UGT probe substrates were evaluated using previously reported method with minor modification. In brief, HLMs (0.25 mg/mL) were activated by incubation in the presence of alamethicin (25 μg/mL) for 15 min on ice. After the addition of UGT isoform-selective substrates and selaginellins (0, 0.5, 2, 5, 20 and 50 μM) the final concentrations of organic solvent (methanol) for the cocktail incubation conditions were 1.0% (v/v). The incubation reaction mixtures were pre-incubated for 5 min. The reaction was initiated by the addition of 5 mM UDPGA and further incubated for 60 min. All reactions were terminated by adding ice-cold acetonitrile containing estrone glucuronide (IS). After mixing and centrifugation, aliquots were injected into a LC-MS/MS as described previously (Table 2). All microsomal incubations were performed in triplicate.
The IC50 values (concentration of the inhibitor causing 50% inhibition of the original enzyme activity) were calculated using WinNonlin software (Pharsight, Mountain View, CA, USA): percentage of control activity = 100 × [1 − (I/(I + IC50))], where I is the inhibitor concentration, and IC50 is the inflection point on the curve.

T2 sequence (P11712 whole entry, canonical isoform): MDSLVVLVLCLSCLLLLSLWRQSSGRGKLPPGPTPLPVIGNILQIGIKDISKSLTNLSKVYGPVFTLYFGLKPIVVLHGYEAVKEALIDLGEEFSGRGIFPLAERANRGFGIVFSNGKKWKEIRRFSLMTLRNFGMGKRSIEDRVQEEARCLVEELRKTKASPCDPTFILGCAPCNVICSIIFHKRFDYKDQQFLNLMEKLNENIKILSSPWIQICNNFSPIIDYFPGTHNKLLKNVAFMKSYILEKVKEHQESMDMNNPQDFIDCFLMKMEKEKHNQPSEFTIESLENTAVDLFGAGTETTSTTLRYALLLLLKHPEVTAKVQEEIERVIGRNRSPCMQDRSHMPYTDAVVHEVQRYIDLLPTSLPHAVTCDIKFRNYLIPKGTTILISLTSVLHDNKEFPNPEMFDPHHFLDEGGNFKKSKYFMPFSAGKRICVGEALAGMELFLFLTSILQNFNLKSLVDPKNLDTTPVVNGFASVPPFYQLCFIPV

Compound	IC50 (CYP1A2; pooled HLMs 0.25 mg/mL, phenacetin 100 μM, read-out: IC50 P450 isoform 1A2)	IC50 (CYP2C9)	IC50 (UGT1A9)	IC50 (CYP1A2)
COc1ccc(C(=C2C=CC(=O)C=C2)c2c(-c3ccc(O)cc3)ccc(CO)c2C#Cc2ccc(O)cc2)cc1 [Selaginellin M]	> 50 µM	3.9 µM	6.5 µM	–
O=C1C=CC(=C(c2ccc(O)cc2)c2c(-c3ccc(O)cc3)ccc(CO)c2C#Cc2ccc(O)cc2)C=C1 [Selaginellin]	–	1.2 µM	8.7 µM	36.4 µM
